Results taken from patent publication US20210284668A1, “GOLD (I)-PHOSPHINE 1,2,3-TRIAZOLE DERIVATIVES WITH ANTIBIOTIC PROPERTIES” (Centre National de la Recherche Scientifique, priority 2018, published 2021).
Values joined by “and” are separate entries in the source; they are usually repeats but may differ in a detail not shown here. Identical values can stand only once.

Legend:
E. faecium BM4147 = experiment: MIC by microdilution, E. faecium BM4147; format: cell-based, Enterococcus faecium; design: unit not given here; conditions: E. faecium BM4147 (VanA positive, glycopeptide resistant), in duplicate
Method in brief: (§1)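 Broth microdilution per CLSI document M07-A10, Mueller-Hinton medium, each MIC run in duplicate. Strains include E. coli ATCC25922 (wild-type), S. epidermidis ATCC35984 (MecA positive) and S. aureus ATCC700699 (MecA positive, glycopeptide resistant), within a mixed panel of susceptible and resistant Gram-positive/Gram-negative bacteria.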

[1] = tested on: panel of Gram-positive and Gram-negative strains; experiment: Antibacterial profile on the selected panel of strains; format: cell-based; conditions: for antimicrobial / antibacterial activity (in words): summary of Tables 1-12
Method in brief: (§2)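 Broth microdilution per CLSI (M07-A10) in Mueller-Hinton broth, run in duplicate; MIC recorded as minimal inhibitory concentration. Panel spans wild-type to multidrug-resistant strains, e.g. S. aureus ATCC700699 (MecA+, glycopeptide resistant), S. epidermidis ATCC35984 (MecA+), E. coli ATCC25922 (wild-type).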

S. epidermidis ATCC14990 = experiment: MIC by microdilution, S. epidermidis ATCC14990; format: cell-based, Staphylococcus epidermidis; conditions: S. epidermidis ATCC14990 (MecA negative, wild-type), in duplicate
Method in brief: as §2

E. coli ATCC25922 = experiment: MIC by microdilution, E. coli ATCC25922; format: cell-based, Escherichia coli; conditions: E. coli ATCC25922 (wild-type), in duplicate
Method in brief: as §2

E. faecalis V583 = experiment: MIC by microdilution, E. faecalis V583; format: cell-based, Enterococcus faecalis; conditions: E. faecalis V583 (VanB positive, glycopeptide resistant), in duplicate
Method in brief: as §2

E. faecalis UCN41 = experiment: MIC by microdilution, E. faecalis UCN41; format: cell-based, Enterococcus faecalis; design: unit not given here; conditions: E. faecalis UCN41 (VanA positive, glycopeptide resistant), in duplicate
Method in brief: as §1

S. aureus ST20131365 = experiment: MIC by microdilution, S. aureus ST20131365; format: cell-based, Staphylococcus aureus; conditions: S. aureus ST20131365 (MecA positive, glycopeptide resistant), in duplicate
Method in brief: as §2

human hepatocyte = experiment: Human hepatocyte cytotoxicity profile; format: cell-based; conditions: human hepatocytes
Protocol: FIG. 1 is a diagram representing the TMB3 human hepatocyte cytotoxicity between 7 to 25 μM (FIG. 1 A) and the ampicillin human hepatocyte cytotoxicity between 7 to 25 μM (control) (FIG. 1B. In the diagram, the abscissa represents the concentration in Log per μM and the ordinate the viability of the cells in percentage compared to the human hepatocyte culture without ampicillin trihydrate or TMB3.
The human hepatocyte cytotoxicity profile has been evaluated between 7 and 25 μM for TMB derivatives as a toxicity appeared from 25 μM for the initial hit TMB3 during a preliminary assessment.

S. epidermidis ATCC35984 = experiment: MIC by microdilution, S. epidermidis ATCC35984; format: cell-based, Staphylococcus epidermidis; conditions: S. epidermidis ATCC35984 (MecA positive), in duplicate
Method in brief: as §2

S. aureus ATCC25923 = experiment: MIC by microdilution, S. aureus ATCC25923; format: cell-based, Staphylococcus aureus; conditions: S. aureus ATCC25923 (MecA negative, wild-type), Mueller-Hinton broth, in duplicate
Method in brief: as §1

E. faecium AUS0004 = experiment: MIC by microdilution, E. faecium AUS0004; format: cell-based, Enterococcus faecium; conditions: E. faecium AUS0004 (VanB positive, glycopeptide resistant), in duplicate
Method in brief: as §1

S. aureus ATCC700699 = experiment: MIC by microdilution, S. aureus ATCC700699; format: cell-based, Staphylococcus aureus; design: unit not given here; conditions: S. aureus ATCC700699 (MecA positive, glycopeptide resistant), in duplicate
Method in brief: as §2

E. faecalis JH2-2 = experiment: MIC by microdilution, E. faecalis JH2-2; format: cell-based, Enterococcus faecalis; design: unit not given here; conditions: E. faecalis JH2-2 (wild-type), in duplicate
Method in brief: as §1

E. faecium ATCC19434T = experiment: MIC by microdilution, E. faecium ATCC19434T; format: cell-based, Enterococcus faecium; design: unit not given here; conditions: E. faecium ATCC19434T (wild-type), in duplicate
Method in brief: as §1

S. aureus ATCC29213 = experiment: MIC by microdilution, S. aureus ATCC29213; format: cell-based, Staphylococcus aureus; conditions: S. aureus ATCC29213 (MecA negative, wild-type), Mueller-Hinton broth, in duplicate
Method in brief: as §1

[2] = tested on: Clostridium difficile ATCC700057; experiment: MIC by microdilution, Clostridium difficile; format: cell-based; conditions: strain ATCC70057 [sic] (Tables 1-2) / ATCC700057 (Tables 3-10), in duplicate
[3] = tested on: S. epidermidis ST20140436; experiment: MIC by microdilution, S. epidermidis ST20140436; format: cell-based, Staphylococcus epidermidis; conditions: S. epidermidis ST20140436 (MecA positive, glycopeptide resistant), in duplicate
Method in brief: as §1

[4] = tested on: S. epidermidis ST20150446; experiment: MIC by microdilution, S. epidermidis ST20150446; format: cell-based, Staphylococcus epidermidis; conditions: S. epidermidis ST20150446 (MecA positive, glycopeptide resistant), in duplicate
Method in brief: as §1

SMILES | Minimal Inhibitory Concentration (MIC) (E. faecium BM4147) | MICs measured, as range of concentrations ([1]; depending on the bacteria strains) [µM] | antimicrobial / antibacterial activity (in words) [1] | Minimal Inhibitory Concentration (MIC) (S. epidermidis ATCC14990) | Minimal Inhibitory Concentration (MIC) (E. coli ATCC25922) | Minimal Inhibitory Concentration (MIC) (E. faecalis V583) | Minimal Inhibitory Concentration (MIC) (E. faecalis UCN41) | Minimal Inhibitory Concentration (MIC) (S. aureus ST20131365) | concentration at which cytotoxicity appears (human hepatocyte; evaluated between 7 and 25 μM) [µM] | concentration from which toxicity appeared (human hepatocyte; preliminary assessment) [µM] | Minimal Inhibitory Concentration (MIC) (S. epidermidis ATCC35984) | Minimal Inhibitory Concentration (MIC) (S. aureus ATCC25923) | Minimal Inhibitory Concentration (MIC) (E. faecium AUS0004) | Minimal Inhibitory Concentration (MIC) (S. aureus ATCC700699) | Minimal Inhibitory Concentration (MIC) (E. faecalis JH2-2) | Minimal Inhibitory Concentration (MIC) (E. faecium ATCC19434T) | Minimal Inhibitory Concentration (MIC) (S. aureus ATCC29213) | Minimal Inhibitory Concentration (MIC) [2] | Minimal Inhibitory Concentration (MIC) [3] | Minimal Inhibitory Concentration (MIC) [4]
CC[P+](CC)(CC)[Au-][c]1nn[nH]c1COC(=O)NC(C(=O)NC1C(=O)N2C1SC(C)(C)C2C(=O)O)c1ccccc1 (stereo not drawn) [TMB3] | 2 and 1 | 0.08 to 0.63 | have antimicrobial activity | ≤0.06 | >8 | 1 | 1 and 0.5 | 0.125 and 0.25 | 20 | 25 | ≤0.06 | 0.125 and 0.25 | 1 | 0.125 and 0.25 | 0.5 and 1 | 1 and 0.5 | 0.125 and 0.25 | – | – | –
CC[P+](CC)(CC)[Au-][c]1nn[nH]c1COC(=O)N1CCC[C@@H]1C(=O)O [TMB28] | 0.5 | – | have antimicrobial activity | ≤0.06 | >8 | 0.25 | 0.25 | 0.25 and 0.5 | – | – | ≤0.06 | 0.125 | 0.5 | 0.125 | 0.25 | 0.25 | 0.25 | 0.125 and 0.25 | 0.125 | 0.125
CC[P+](CC)(CC)[Au-][c]1nn[nH]c1COC(=O)N[C@H](Cc1c[nH]c2ccccc12)C(=O)O [TMB30] | 1 | – | have antimicrobial activity | ≤0.06 | >8 | 0.5 | 0.5 | 0.25 | – | – | ≤0.06 | 0.25 | 1 | 0.25 | 0.5 | 0.5 | 0.25 | 0.125 | 0.125 | 0.125
CC[P+](CC)(CC)[Au-][c]1nn[nH]c1CN1CCN(C)CC1 [TMB33] | 0.5 | – | have antimicrobial activity | ≤0.06 | >8 | 0.5 | 1 | 0.25 | – | – | ≤0.06 | 0.125 | 0.5 | 0.25 | 0.25 | 0.25 | 0.25 | ≤0.06 | 0.25 | 0.25
CC[P+](CC)(CC)[Au-][c]1nn[nH]c1CCCO [TMB34] | 0.125 | – | have antimicrobial activity | ≤0.06 | >8 | 0.125 | 0.125 | ≤0.06 | – | – | ≤0.06 | ≤0.06 | 0.125 | ≤0.06 | 0.125 | 0.125 | ≤0.06 | ≤0.06 | ≤0.06 | ≤0.06
CC[P+](CC)(CC)[Au-][c]1nn[nH]c1CC(N)C(=O)O (stereo not drawn) [TMB37] | 0.5 | – | have antimicrobial activity | ≤0.06 | >8 | 0.5 | 0.5 | 0.25 | – | – | ≤0.06 | 0.125 | 0.5 | 0.25 | 0.5 | 0.5 | 0.125 and 0.25 | ≤0.06 | 0.125 | 0.125
